Assay results: patent publication US6884810B2, “Benzimidazole derivatives” (Zeria Pharmaceutical Co., Ltd., priority 2001, dated 2005)

Experiments:
[1] = system: gastric acid secreted under stimulation with histamine; assay: Gastric acid secretion inhibition action, histamine-stimulated, acute Fistula method; assay type: in vivo, Sprague-Dawley (SD) rats; conditions: SD rats, administered in the duodenum, histamine 8 mg/kg/h, total acid discharge at 3, 4 and 5 hours, Probit method
Experimental: (Gastric Acid Secretion Inhibition Action)
(1) Test Animals Employed were Sprague-Dawley (SD) Rats (7 Weeks Old, Male) Purchased from Charles River Japan, Inc. Before the Test, the Rats Were Fed for 5 Days or More.
Each test drug was suspended in, or dissolved in, 0.5% sodium carboxymethylcellulose solution, whereby a suspension or solution was prepared so as to attain 2.5 mL/kg.
(2) Measurement of Gastric Acid Secretion
The amount of gastric acid secreted under stimulation with histamine was measured on the rats fasted for 18 hours by use of the acute Fistula method as described by Hiramatsu et al. (Dig. Dis. Sci.,39, 689-697(1994)). Briefly, each rat was etherized lightly, and then a winged tubular needle filled with 3.8% citric acid solution was indwelled in the tail vein of the rat. The abdomen of the rat was opened, and the pyloric part of the stomach was ligated. Subsequently, a small hole was made in the duodenum, and the abdomen of the rat was closed with a feeding tube filled with saline indwelled. The inside of the stomach was washed with saline, a polyethylene-made Fistula tube (inner diameter: 4 mm) was set in the anterior stomach, and the cut portion of the anterior stomach was ligated and secured. The stomach and the duodenum were returned to the abdominal cavity, with the Fistula tube and the feeding tube exposed outside. The rat was placed in a Ballman cage II. Histamine was continuously administered through the winged injection needle which had been indwelled in the tail vein in advance (8 mg/kg/h, 1.38 mL/h). 15 Minutes thereafter, gastric juice of the rat was collected. Subsequently, collection of gastric juice was performed every one hour. Each time, the amount of the collected gastric juice was recorded, followed by titration with NaOH (0.1 mol/L) up to the end point pH 7.0. From the volume consumed for titration, acidity was calculated. The acid discharge amount was calculated as a product of the amount of the gastric juice and the acidity. Before starting the test, the rats were grouped so that the intra-group total amount of the gastric juice samples initially collected was the same between groups. Thereafter, each test drug was administered (2.5 mL/kg) in the duodenum through a feeding tube which had been attached to the duodenum in advance. To each rat of a control group, 0.5% Na-CMC solution was administered.
(3) Analysis of the Results
The data as obtained above are shown by way of mean±standard error. Total amount of acid discharge was obtained through summation of the amounts of acid discharge at three points in time; i.e., 3, 4 and 5 hours after initial collection of gastric juice. Percent inhibition of each group was computed from the total acid discharge amount of the control group and that of each group. On the basis of the percent inhibition calculated for each group, 50% effective dose (ED50) was computed by use of the Probit method.

CYP2C19 = biological target: T1, CYP2C19 (Homo sapiens, UniProt P33261); assay: Human CYP2C19 activity inhibition test (S-(+)-mephenytoin to 4'-hydroxymephenytoin); assay type: in vitro ADME; conditions: test compound 10 μM, human CYP2C19 yeast expression system microsome, 4'-hydroxymephenytoin generated vs control; for CYP2C19 residual activity (%): 10 µM
T1 construct: purchased Sumitomo Chemical Co., Ltd; host or cells: yeast (microsomes)
T1 sequence (P33261 whole entry): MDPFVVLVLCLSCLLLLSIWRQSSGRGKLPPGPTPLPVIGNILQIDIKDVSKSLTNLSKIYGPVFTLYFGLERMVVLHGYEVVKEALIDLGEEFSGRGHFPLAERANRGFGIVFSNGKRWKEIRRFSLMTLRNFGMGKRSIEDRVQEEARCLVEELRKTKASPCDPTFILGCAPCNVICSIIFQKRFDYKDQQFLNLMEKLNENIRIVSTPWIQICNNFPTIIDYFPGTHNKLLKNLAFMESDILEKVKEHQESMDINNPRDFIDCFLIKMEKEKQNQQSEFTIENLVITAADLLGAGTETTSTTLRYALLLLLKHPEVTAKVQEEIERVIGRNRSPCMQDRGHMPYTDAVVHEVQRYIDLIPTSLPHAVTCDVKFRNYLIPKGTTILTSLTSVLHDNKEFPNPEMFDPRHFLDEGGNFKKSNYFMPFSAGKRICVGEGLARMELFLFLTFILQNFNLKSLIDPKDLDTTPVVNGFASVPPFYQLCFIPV
Experimental: (Human CYP2C19 Activity Inhibition Test)
CYP2C19 specifically participates in the metabolism reaction from S-(+)-mephenytoin to 4′-hydroxymephenytoin. Therefore, by use of an expression system CYP2C19, the production amount (concentration) of 4′-hydroxymephenytoin, serving as an index for CYP2C19 activity, was determined, whereby the inhibitory action of respective test substances was investigated.
(a) Metabolizing Activity Test
A solution of S-(+)-mephenytoin in methanol (125 μmol/L, 50 μL) and a solution of a test substance in methanol (25 μmol/L, 0, 10, 100, or 200 μL) were placed in a 10-mL glass test tube. The solvent was removed under a nitrogen gas at 40° C. A 75 μL mixture of 0.5M phosphate buffer (pH 7.4)-0.5 mM EDTA (20:10), 140 μL purified water, and 10 μL human CYP2C19 yeast expression system microsome (purchased from Sumitomo Chemical Co., Ltd.) were added.
Incubation was performed for 10 minutes at 37° C. Subsequently, aqueous 12% perchloric acid solution (50 μL) was added, to thereby stop the reaction.
After the reaction was stopped, an internal standard substance (I.S.) methyl p-hydroxybenzoate (100 μg/ mL, 50 μL), and diethyl ether (2 mL) were added. The mixture was shaken for 10 minutes, followed by centrifugation at 3,000 rpm for 10 minutes. The organic layer was separated, and the solvent was removed under a nitrogen gas at 40° C. The residue was dissolved in a 200 μL mobile phase, and the mixture was subjected to analysis by high performance liquid chromatography (HPLC).
In order to generate a calibration curve, the general procedure of the above process was repeated by use of 4′-hydroxymephenytoin solution instead of the S-(+)-mephenytoin solution. Quantitation was performed on the basis of the peak area ratio of 4′-hydroxymephenytoin to I.S. The amount of 4′-hydroxymephenytoin generated in the control sample was compared with that generated in the present of a test compound, and the results of comparison were used as an activity index.
HPLC was performed under the conditions described below (HPLC conditions A or HPLC conditions B).

H+/K+-ATPase = biological target: T2, H+/K+-ATPase (Sus scrofa, UniProt P19156); assay: Proton pump inhibitory action: activity of inhibiting H+/K+-ATPase (at pH 1); assay type: biochemical; conditions: pig gastric mucosa enzyme sample; test compounds pretreated in hydrochloric acid solution pH 1 (50% DMSO) for 15 minutes; read-out: Proton pump inhibitory action [IC50 (μmol/L)]
T2 construct: The mucous membrane layer was homogenized in Tris-HCl buffer; from tissue; host or cells: pig stomach body, mucous membrane layer, membrane fraction from a sucrose interface
T2 sequence (P19156 2-1034 limits assumed): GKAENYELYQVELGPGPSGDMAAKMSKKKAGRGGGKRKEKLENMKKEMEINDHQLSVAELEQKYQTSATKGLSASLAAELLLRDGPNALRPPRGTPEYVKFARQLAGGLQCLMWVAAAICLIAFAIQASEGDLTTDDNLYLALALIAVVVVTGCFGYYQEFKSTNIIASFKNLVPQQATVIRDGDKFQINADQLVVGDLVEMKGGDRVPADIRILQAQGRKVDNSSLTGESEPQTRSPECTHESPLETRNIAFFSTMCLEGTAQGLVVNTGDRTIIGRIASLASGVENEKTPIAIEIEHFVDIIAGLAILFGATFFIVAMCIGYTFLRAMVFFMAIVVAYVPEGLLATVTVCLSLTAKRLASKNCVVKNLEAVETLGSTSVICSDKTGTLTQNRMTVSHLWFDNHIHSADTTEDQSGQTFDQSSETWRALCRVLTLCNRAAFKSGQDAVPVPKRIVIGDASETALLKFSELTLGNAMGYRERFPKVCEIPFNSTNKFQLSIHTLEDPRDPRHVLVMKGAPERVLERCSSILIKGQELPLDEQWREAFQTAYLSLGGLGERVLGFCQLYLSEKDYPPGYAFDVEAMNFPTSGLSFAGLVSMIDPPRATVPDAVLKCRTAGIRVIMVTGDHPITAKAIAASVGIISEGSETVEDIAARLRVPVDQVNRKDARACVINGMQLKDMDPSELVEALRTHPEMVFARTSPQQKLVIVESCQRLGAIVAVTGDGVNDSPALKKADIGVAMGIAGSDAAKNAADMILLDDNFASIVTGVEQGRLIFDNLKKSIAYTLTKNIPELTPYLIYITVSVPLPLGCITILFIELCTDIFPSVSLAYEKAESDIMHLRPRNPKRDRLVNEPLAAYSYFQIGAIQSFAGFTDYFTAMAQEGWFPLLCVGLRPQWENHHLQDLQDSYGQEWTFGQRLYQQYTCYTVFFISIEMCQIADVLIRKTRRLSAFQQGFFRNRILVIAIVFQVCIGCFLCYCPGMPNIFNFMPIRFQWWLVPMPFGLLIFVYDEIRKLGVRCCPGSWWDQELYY
T2 sequence (P18434 whole entry partner): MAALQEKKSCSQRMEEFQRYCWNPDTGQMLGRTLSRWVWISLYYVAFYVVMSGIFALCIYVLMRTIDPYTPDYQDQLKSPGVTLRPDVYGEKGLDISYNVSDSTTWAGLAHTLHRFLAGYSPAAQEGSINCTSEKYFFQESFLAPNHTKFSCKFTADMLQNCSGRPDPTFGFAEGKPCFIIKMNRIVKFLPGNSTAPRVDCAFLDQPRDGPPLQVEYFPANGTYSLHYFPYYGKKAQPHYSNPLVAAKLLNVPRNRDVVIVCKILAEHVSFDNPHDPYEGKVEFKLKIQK
From the text: (Proton Pump Inhibitory Action)
(1) Preparation of Enzyme Sample (H^+/K^+-ATPase)
The stomach body removed from a pig, which had been stored in a frozen state, was separated into a muscle layer and a mucous membrane layer. The mucous membrane layer was homogenized in Tris-HCl buffer (20 mmol/L, pH 7.4) having a volume 5 times that of the layer and containing sucrose (0.25 mol/L) and EGTA (1 mmol/L) (hereinafter the mixture is referred to as Tris-HCl buffer) in a mixer. The homogenate was subjected to centrifugation (9,000×g, 30 minutes). The supernatant was softly placed on 8 mL Tris-HCl buffer (20 mmol/L, pH 7.4) containing 30% sucrose and 1 mmol/L EGTA. The mixture was subjected to ultracentrifugation at 100,000×g for 60 minutes. The interface fraction obtained through centrifugation was subjected to centrifugation (113,000×g, 60 minutes) twice. Pellet was suspended in Tris-HCl buffer, and the suspension was homogenized at low speed. The resultant homogenate served as an enzyme sample of interest and was stored at −80° C. The protein content of the sample was quantitated through use of a BCA protein assay reagent in accordance with a method described by Smith et al. (Anal. Biochem., 150, 76-85 (1985)). All these steps were performed under cooling with an ice bath.
(2) Activity of inhibiting H^+/K^+-ATPase (at pH 1)
Activity of inhibiting H^+/K^+-ATPase was measured in accordance with a method described in Biochem. Biophys. Res. Commun., 40, 880-886 (1970). Specifically, ATP was employed as a substrate, and inorganic phosphate, which is a resultant degradation product, was quantitated. In consideration of the solubility of test compounds, the test compounds were preliminarily treated with a hydrochloric acid solution (containing 50% DMSO, 1×10^−1 mol/L, pH 1). Each of the test compounds having different concentrations was added to the hydrochloric acid solution to thereby yield a 1,000—fold dilution, and thereafter, the diluted compound was allowed to stand for 15 minutes at room temperature. After these preliminary remedies, a 10 μL solution that had undergone the above preliminary remedies were added to 840 μL Tris-acetate buffer (40 mmol/L, pH 7.5, containing 2 mmol/L MgCl2, may be referred to as TE buffer) containing or not containing 20 mmol/L KCl. Subsequently, a 100 μL enzyme solution (5 μg protein) diluted with the TE buffer was added. Incubation was performed for 30 minutes at 37° C. Thereafter, a 50 μL ATP solution (40 mmol/L) which was dissolved in TE buffer not containing KCl was added to initiate enzyme reaction (total volume: 1 mL, ATP final concentration: 2 mmol/L). Incubation was performed for 30 minutes at 37° C. Subsequently, ice-cold 12% trichloroacetic acid (2 mL) was added, to thereby stop the enzyme reaction. A molybdenum reagent (1 mL, 3.75% ammonium molybdate/1.5 mol/L sulfuric acid) and butyl acetate (5 mL) were added, followed by mixing under vigorous shaking for 5 minutes. The absorption of the butyl acetate layer was measured at 310 nm. A standard curve was determined on the basis of absorption obtained through the similar procedure by use of KH2PO4 at different concentrations dissolved in 8% TCA solution, and inorganic phosphate content was calculated. Samples to be measured were prepared in duplicate. The measurements were averaged, and residual activity was obtained from the difference between the inorganic phosphate content as determined in a sample containing KCl and that as determined in a sample not containing KCl. Percentage inhibition activity was calculated with respect to the activity obtained from a control sample (DMSO), which was considered 100%. As the inhibitory potency of each test compound, IC50 values were computed and shown. All the test compounds were dissolved in dimethyl sulfoxide immediately before use.

Row | Compound | ED50 ([1]; Rattus norvegicus) | CYP2C19 residual activity (%) (CYP2C19) | IC50 (H+/K+-ATPase) | Gastric-acid secretion inhibition action [ED50 (mg/kg)] [1] | activity at 10 min, 10 µM (CYP2C19; human, pH 7.4, probe S-(+)-mephenytoin (to 4'-hydroxymephenytoin), read-out: CYP2C19 residual activity (%))
1 | COc1c(OCCCC(F)(F)F)ccnc1C[S+]([O-])c1nc2ccccc2[nH]1 (single isomer, unassigned; (+)) [Example 5(1), (+)-2-[3-methoxy-4-(4,4,4-trifluorobutoxy)pyridin-2-yl-methanesulfinyl]-1H-benzimidazole] | 0.9 mg/kg | 78.6% | 3.32 µmol/L | – | –
2 | [O-][S+](Cc1cc(OCCCC(F)(F)F)ccn1)c1nc2ccccc2[nH]1 (single isomer, unassigned; (+)) [Example 11, (+)-2-[4-(4,4,4-trifluorobutoxy)pyridin-2-yl-methanesulfinyl]-1H-benzimidazole] | – | – | 3.77 µmol/L | 0.50 mg/kg | –
3 | [O-][S+](Cc1cc(OCCOCC(F)(F)F)ccn1)c1nc2ccccc2[nH]1 (single isomer, unassigned; (+)) [Example 14, (+)-2-{4-[2-(2,2,2-trifluoroethoxy)ethoxy]pyridin-2-yl-methanesulfinyl}-1H-benzimidazole] | – | 81.4% | 6.67 µmol/L | 0.42 mg/kg | –
4 | COc1c(OCCOCC(F)(F)F)ccnc1C[S+]([O-])c1nc2ccccc2[nH]1 (single isomer, unassigned; (-)) [Example 4, (−)-2-{3-methoxy-4-[2-(2,2,2-trifluoroethoxy)ethoxy]pyridin-2-yl-methylsulfinyl}-1H-benzimidazole] | – | 93.9% | 3.46 µmol/L | 2.6 mg/kg | –
5 | [O-][S+](Cc1cc(OCCOCC(F)(F)F)ccn1)c1nc2ccccc2[nH]1 (stereo not shown) [Example 12, 2-{4-[2-(2,2,2-trifluoroethoxy)ethoxy]pyridin-2-yl-methanesulfinyl}-1H-benzimidazole] | – | – | 7.86 µmol/L | – | 88.8%
